Measurements as given in patent US20070264229A1, “Peptides for Treatment of Autoimmune Disease” (priority 2004, published 2007).
Where two headings read alike, the source gives them in different places.

Experiments:
[1] = test system: spleen and lymph node cells of SJL/J mice; assay: Cytokine measurement by ELISA in cultures from immunized SJL/J mice; type: cell-based, mouse; details: re-stimulated with cognate peptide 2 days, FIG. 4
Protocol: After ten days, single cell suspensions derived from lymph nodes and spleens were re-stimulated with the corresponding peptides in the presence of antigen presenting cells for two days. Culture supernatants were analyzed for amount of secretion of IL-2, IL-4, IL-10 and IFN-γ by ELISA.
Cytokine mAb directed against each of IL-2, IL-4, IL-10, and IFN-γ was coated into wells of 96-well plates at a concentration of 1 μg/ml overnight. Plates were washed and were treated with blocking solution (Kierkegaard and Perry, Gaithersburg, Md.), followed by incubation of each of the cytokine standards and the culture supernatants overnight at 4° C. After washing, plates were incubated with corresponding biotinylated anti-cytokine-detecting mAb (1 μg/ml) for 2 hrs. Plates were developed by addition of avidin/peroxidase and its substrate. The mAb pairs used were from the following clones: IL-2: JES6-A112, and JES6-5H4; IL-4: 11B11 and BVD6-24G2; IL-10: JES5-16E3 and SXC-1; and IFN-γ: R4-6A2 and XMG 1.2 (PharMingen).

[2] = test system: PLP139-151-specific CD4+ T cells; assay: Detection of PLP 139-151-reactive CD4+ T cells with I-As/PLP 139-151 tetramers; type: in vivo, mouse; details: SJL mice immunized with PLP139-151 alone, cultured 4 days, FIG. 7A
Protocol: After 10 days, lymphocytes were cultured with PLP 139-151. Four days later, after gating with anti-CD4, anti-CD25, and 7-amino-actinomycin D (7-AAD), live cells were incubated with I-A^s tetramers with PLP 139-151 (left) or with control peptide TMEV 70-86 (right) for 3 hrs. The I-A^s/tetramer-stained cells were determined in live CD4^+ T cell subset after eliminating dead cells (7-AAD positive).
SJL/J mice in groups of 3 animals were immunized with CFA alone or with PLP 139-151, with or without each of the peptides (75 μg each/mouse) in CFA. On day 10, all mice were sacrificed, and single cell suspensions were prepared and cultured at a density of 5×10^6 cells per ml in DMEM medium containing 10% fetal calf serum (FCS), 2 mM L-glutamine, 10 mM HEPES, 2 mM mercaptoethanol, penicillin (1000 U/ml) and streptomycin (1 μg/ml) (Biowhittaker, Walkersville, Md.). The cultures from each of the above groups were re-stimulated with PLP 139-151 with or without peptides (25 μg per ml). The mice treated with CFA only were used as negative control to validate immunizations; the PLP 139-151-immunized mice were used as positive controls to which the effect of peptides on PLP 139-151-specific CD4^+ T cell responses was compared.
After 4 days of culturing, cell suspensions were subjected to Ficoll-Hypaque density gradient centrifugation and were washed twice using PBS. […]

[3] = test system: spleen and lymph node cells of SJL/J mice; details: copolymer, Illés 2004 / Stern 2004 PNAS; cited from earlier work
[4] = test system: EAE in HLA-DR2 and MBP85-99-specific TCR double tg mice; details: previous study, Illés 2004 PNAS 101:11749; cited from earlier work
[5] = test system: PLP139-151 specific cell line; assay: Cross-reactivity with PLP139-151 specific cell line; type: cell-based, mouse; details: FIG. 3B
Protocol: The proliferative responses were measured as CPM after pulsing with ^3[H] thymidine.

relapsing-remitting MS = details: relapsing-remitting forms of MS, cited from earlier work
[6] = test system: MBP85-99-specific transgenic (hVβ2+CD4+) and endogenous (hVβ2−CD4+) T cells; assay: Cross-reactivity: proliferation of sorted transgenic and endogenous CD4+ T cells from humanized mice; type: cell-based, mouse; details: 10 μg/ml MBP85-99 or 100 μg/ml peptide, FIG. 3A
Protocol: To sort human TCR transgenic T cells specific to MBP 85-99, splenocytes from humanized mice were incubated with anti-CD4-APC (clone GK1.5, obtained from PharMingen, San Diego, Calif.) and anti-human Vβ2-PE (Immunotech, Marseille, France) at room temperature for 20 min. After washing twice, tg and endogenous or non-tg CD4 T cells (hVβ2^−CD4 cells) were sorted using a FACS Vantage SE apparatus (Becton Dickinson, San Diego, Calif.). The purity of fractionated hVβ2^+CD4^+ and hVβ2^−CD4^+ T cells was determined to be 98-99%.
SJL/J mice were immunized with PLP 139-151 or with each of the peptides (100 μg per mouse) emulsified in complete Freund's adjuvant (CFA; Difco Laboratories, Detroit, Mich.). Ten days later, single cell suspensions were prepared from spleens and lymph nodes, and were stimulated and re-stimulated with corresponding peptides at a concentration of 10 μg/ml in the presence of APC. After two rounds of stimulation, viable lymphocytes were separated by Ficoll-Hypaque density gradient centrifugation and were tested for specificity at a dose range of 0 to 50 μg/ml. NASE 101-120 peptide, which also binds I-A^s was used as a negative control. Lymphocytes were cultured in 96-well plates at a density of 5×10^5 cells per ml for 48 hrs, and were pulsed with ^3[H]-thymidine, 1 μCi per well. After sixteen hours of culture, plates were harvested and a Wallac scintillation counter (model 1250) was used to analyze the proliferative response determined by amount of ^3[H]-thymidine incorporation CPM. To determine the proliferative response of each of tg T cells expressing HLA-DR2 and human MBP 85-99-specific TCR, and non-tg T cells, the cells fractionated by flow cytometry were seeded in complete medium at 4×10^5 cells/well in 96-well U-bottom microtiter plates. Irradiated splenocytes of humanized mice were used as APC.
Therefore, MBP85-99-specific transgenic (hVβ2^+CD4^+) and endogenous (non-transgenic, hVβ2^−CD4^+) T cells were sorted by flow cytometry from spleen cells of humanized double transgenic mice.

HLA-DR2 (DRA/DRB1*1501) = target: T1, HLA-DR2 (DRA/DRB1*1501) (Homo sapiens, UniProt P01903+P01911); assay: Competitive binding assay for HLA-DR2: inhibition of biotinylated MBP 85-99 binding
T1 construct: isolate soluble HLA-DR2 molecules which had been expressed in Drosophila S2 cells; made in house; host or cells: Drosophila S2 cells
Protocol: The reaction mixtures were transferred to plates coated with LB3.1 Ab specific to HLA DR2 molecules. Following addition of streptavidin-conjugated alkaline phosphatase, absorbance was measured at 450 nm by using a microtiter plate reader. Percent inhibition was calculated as described in the Materials and Methods. […] These studies were performed as described ([…]. et al. 2002. J Clin Invest 109:1635). […] Antigen presentation assay was performed as described previously [[…]. et al. 2001 Hum Immunol 62:753].

## PLP139-151: one of the most immunodominant and encephalitogenic epitopes of PLP in SJL/J mice (CHCLGKWLGHPDK; UniProt P60202 139-151, looked up, fragment)
[1]
  IFN-γ production: produced in significant amounts
  IL-2 production: produced in significant amounts
  Secretion of IL-4: comparable in all of the cultures
[2]
  expansion of PLP tetramer reactive cells: 1.5%

## poly(F,Y,A,K)n [FYAK]
[3]
  induction of immunosuppressive cytokines IL-4 and IL-10: most effective

## poly[Y, E, A, K]n [Cop1]
[4]
  mean maximal score: 3.5
EAE in SJL/J mice; at around day 22, co-immunized with PLP139-151, FIG. 5B
  mean maximum score: 2.5
EAE in SJL/J mice; co-immunized with PLP139-151, FIG. 5B
  severity of EAE (in words): moderately suppressed
[5]
  response of PLP139-151 specific cell line (cross reactivity): did not cross-react
relapsing-remitting MS
  reduction of relapse rate: about 30%
relapsing-remitting MS; listed as Copolymer 1
  reduction of relapse rate: 30%
[6]
  proliferation of MBP85-99-specific transgenic or endogenous CD4+ cells: did not cross-react
HLA-DR2 (DRA/DRB1*1501); Binding of biotinylated MBP (0.5 μM) by peptide competitor (1 μM)
  % inhibition: 8%
HLA-DR2 (DRA/DRB1*1501); recombinant HLA-DR2, FIG. 1A and Table 1
  inhibition of binding of biotinylated MBP 85-99 to HLA-DR2 (in words): less efficiently than peptides J1, J2, J3 and J5
